Reference: ChEMBL document CHEMBL1148655, “Anti-angiogenic activity of basic-type, selective cyclooxygenase (COX)-1 inhibitors” (2006)
The source made the active and inactive calls. No cut-off for these calls is given here.

Tests used:
HUVEC [1] = assay: Cytotoxicity against HUVEC cell line; type: functional; conditions: Homo sapiens, read-out: LD50 (the source's name)
HUVEC [2] = assay: Antiangiogenic activity against HUVEC cells by tube formation assay at 100 uM; type: functional, Homo sapiens; conditions: for inhibition at 100 µM: Homo sapiens, HUVEC
[3] = molecular target: Prostaglandin G/H synthase 1 (Homo sapiens) (UniProt P23219); conditions: at 30 µM
Prostaglandin G/H synthase 1 (Homo sapiens), sequence (P23219 whole entry): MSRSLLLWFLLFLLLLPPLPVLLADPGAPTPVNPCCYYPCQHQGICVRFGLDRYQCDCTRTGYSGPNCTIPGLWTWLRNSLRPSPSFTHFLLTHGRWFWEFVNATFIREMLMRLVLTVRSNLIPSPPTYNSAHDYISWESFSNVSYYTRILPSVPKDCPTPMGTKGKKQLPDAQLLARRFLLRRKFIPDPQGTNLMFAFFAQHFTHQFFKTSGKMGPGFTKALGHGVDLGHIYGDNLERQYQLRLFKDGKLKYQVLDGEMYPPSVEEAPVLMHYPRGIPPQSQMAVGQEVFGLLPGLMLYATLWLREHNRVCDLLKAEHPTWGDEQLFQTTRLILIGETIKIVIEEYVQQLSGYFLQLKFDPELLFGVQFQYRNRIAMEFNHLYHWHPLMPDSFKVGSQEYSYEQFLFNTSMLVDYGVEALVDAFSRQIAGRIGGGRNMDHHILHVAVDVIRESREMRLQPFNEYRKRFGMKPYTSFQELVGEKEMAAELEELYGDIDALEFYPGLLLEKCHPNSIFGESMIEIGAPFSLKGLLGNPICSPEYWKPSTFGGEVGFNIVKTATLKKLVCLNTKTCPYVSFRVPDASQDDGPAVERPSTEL
Description: Inhibition of COX1 at 30 uM

[4] = molecular target: T1, Prostaglandin G/H synthase 2 (Homo sapiens) (UniProt P35354); conditions: at 30 µM
T1 sequence (whole entry): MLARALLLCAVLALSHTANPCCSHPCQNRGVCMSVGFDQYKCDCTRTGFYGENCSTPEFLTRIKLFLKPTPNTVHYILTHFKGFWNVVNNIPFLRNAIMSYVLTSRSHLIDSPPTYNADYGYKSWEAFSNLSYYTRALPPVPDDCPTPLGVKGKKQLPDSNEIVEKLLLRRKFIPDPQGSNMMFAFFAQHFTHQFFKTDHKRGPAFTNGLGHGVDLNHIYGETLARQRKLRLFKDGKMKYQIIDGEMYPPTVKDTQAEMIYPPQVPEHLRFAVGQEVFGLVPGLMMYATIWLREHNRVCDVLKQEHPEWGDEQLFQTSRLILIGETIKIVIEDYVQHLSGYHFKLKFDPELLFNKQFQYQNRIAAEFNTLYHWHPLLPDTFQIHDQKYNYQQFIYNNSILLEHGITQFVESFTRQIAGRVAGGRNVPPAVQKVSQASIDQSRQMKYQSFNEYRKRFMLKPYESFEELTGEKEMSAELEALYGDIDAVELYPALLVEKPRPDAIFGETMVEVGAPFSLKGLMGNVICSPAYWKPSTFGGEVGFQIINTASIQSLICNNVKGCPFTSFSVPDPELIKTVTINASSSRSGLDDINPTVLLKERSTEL
Description: Inhibition of COX2 at 30 uM

Row | SMILES | CC50 (HUVEC [1]) [µM] | also measured
1 | Cc1cc(C)cc(C(=O)N2CCc3cc([N+](=O)[O-])ccc32)c1 | > 100 | 
2 | Cc1cc(C)cc(N2CCc3cc(N)ccc32)c1 |  | Activity (HUVEC [2]): 75%
3 | O=C(c1cc(Cl)cc(Cl)c1)N1CCc2cc([N+](=O)[O-])ccc21 | > 100 | 
4 | Cc1cc(C)cc(C(=O)n2ccc3cc([N+](=O)[O-])ccc32)c1 | > 100 | 
5 | CC(C)Cc1ccc(C(C)C(=O)O)cc1 (stereo not drawn) [IBUPROFEN] |  | inhibition at 100 µM (HUVEC [2]): 35%
6 | Cc1cc(C)cc(C(=O)N2CCc3cc(N)ccc32)c1 | > 100 | 
7 | CC(C)(C)c1cc(C(=O)n2ccc3cc(N)ccc32)cc(C(C)(C)C)c1 | > 100 | 
8 | O=C(c1cc(C(F)(F)F)cc(C(F)(F)F)c1)n1ccc2cc([N+](=O)[O-])ccc21 | > 100 | 
9 | CC(=O)Oc1ccccc1C(=O)O |  | inhibition [3]: 21.9%; inhibition [4]: 15.7%
10 | O=C(c1cc(C(F)(F)F)cc(C(F)(F)F)c1)N1CCc2cc([N+](=O)[O-])ccc21 | > 100 | 
11 | CS(=O)(=O)c1ccc(-c2cc(Br)sc2-c2ccc(F)cc2)cc1 [DUP-697] |  | inhibition at 100 µM (HUVEC [2]): 25%; inhibition [3]: inactive
12 | CC(C)(C)c1cc(C(=O)n2ccc3cc([N+](=O)[O-])ccc32)cc(C(C)(C)C)c1 | > 100 | 
13 | CC(C)(C)c1cc(C(=O)N2CCc3cc([N+](=O)[O-])ccc32)cc(C(C)(C)C)c1 | > 100 | 
14 | Cc1cc(C)cc(C(=O)n2ccc3cc(N)ccc32)c1 | > 100 | inhibition at 100 µM (HUVEC [2]): 50%
15 | Nc1ccc2c(c1)CCN2C(=O)c1cc(C(F)(F)F)cc(C(F)(F)F)c1 | > 100 | 
16 | Nc1ccc2c(c1)CCN2C(=O)c1cc(Cl)cc(Cl)c1 | > 100 | 
17 | O=C(c1cc(Cl)cc(Cl)c1)n1ccc2cc([N+](=O)[O-])ccc21 | > 100 | 
18 | Nc1ccc2c(ccn2C(=O)c2cc(C(F)(F)F)cc(C(F)(F)F)c2)c1 | > 100 | 
19 | Nc1ccc2c(ccn2C(=O)c2cc(Cl)cc(Cl)c2)c1 | > 100 | 
20 | CC(C)(C)c1cc(C(=O)N2CCc3cc(N)ccc32)cc(C(C)(C)C)c1 | > 100 | 
